We go through 14 compounds from ChEMBL document CHEMBL6115028, “An Amazing 30-Year Journey around the DABO Family: A Medicinal Chemistry Lesson on a Versatile Class of Non-nucleoside HIV-1 Reverse Transcriptase Inhibitors” (J Med Chem, 2025).

In brackets after ≈: the same amount, converted by molar mass.

For orientation: EC50 means the concentration giving half of the maximal effect. Usually IC50 stands for the concentration that inhibits the measured activity by half. For orientation: MIC means the lowest concentration found to suppress growth.

In data set [1] the test system is Human immunodeficiency virus 1. As to the kind of experiment: Antiviral activity against HIV1 IIIB infected in human MT4 cells assessed as reduction in virus-induced cytopathic effect incubated for 4 days by MTT assay. Format: functional, organism-based. The settings on record: Human immunodeficiency virus 1, IIIB, MT4, 96 h.
Data set [2] relates to MT4. In words: Cytotoxicity against human MT4 cells assessed as reduction in […] incubated for 4 days by MTT assay. Format: functional. The settings on record: MT4, 96 h, time 4 day. For orientation: Cytopathic effects are the visible damage that an infection or toxin causes in cultured cells.
Data set [3] concerns the target Human immunodeficiency virus type 1 reverse transcriptase (Human immunodeficiency virus 1, UniProt Q72547). As to the kind of experiment: Inhibition of recombinant HIV-1 reverse transcriptase associated RNA-dependent DNA polymerase activity.
The nature of data set [4]: Selectivity index, ratio of CC50 for human MT4 cells to EC50 for antiviral activity against HIV1 infected in human MT4 cells. Format: toxicity, cell-based. The conditions noted are these: read-out: Ratio CC50/EC50.
Data set [5] concerns Human immunodeficiency virus 1. In words: Antiviral activity against HIV-1 harboring L100I mutant infected in human MT4 cells assessed as […]. It counts as functional, organism-based. The settings on record: Human immunodeficiency virus 1, MT4.
Data set [6] deals with Human immunodeficiency virus 1. As to the kind of experiment: Antiviral activity against HIV1 harboring K103N mutant infected in MT4 cells. Format: functional, organism-based. The settings on record: Human immunodeficiency virus 1, MT4.
Data set [7] has as its system Candida albicans. As to the kind of experiment: Antifungal activity against Candida albicans ATCC 10231 assessed as growth inhibition measured after 48 hrs by CLSI based method. It counts as functional.
The subject of data set [8] is Bacillus cereus. In words: Antibacterial activity against Bacillus cereus ATCC 4342 assessed as inhibition of microbial growth incubated for 24 hrs by microdilution method. Format: functional. (Broth dilution looks for growth in wells or tubes with falling amounts of substance.)
The test system of data set [9] is Bacillus subtilis. In words: Antibacterial activity against Bacillus subtilis ATCC 6633 assessed as bacterial growth inhibition measured after 48 hrs by resazurin assay. Format: functional. For orientation: The colour change of resazurin is a common sign of viable cells or microbes.
The subject of data set [10] is Aspergillus niger. In words: Antifungal activity against Aspergillus niger assessed as reduction in fungal growth. It counts as functional.
Data set [11] deals with Staphylococcus aureus. As to the kind of experiment: Antibacterial activity against Staphylococcus aureus ATCC 25923 assessed as reduction in bacterial growth incubated for 18 to 20 hrs by broth microdilution assay. Format: functional. The conditions noted are these: time 18-20 hrs.
Data set [12] relates to dengue virus type 1. In words: Antiviral activity Dengue virus 1. It counts as functional, organism-based.
The nature of data set [13]: Cytotoxicity against African green monkey Vero cells. The conditions noted are these: chlorocebus sabaeus. It counts as toxicity, cell-based.
Data set [14] relates to dengue virus type 2. As to the kind of experiment: Antiviral activity Dengue virus 2. Format: functional, organism-based.
The subject of data set [15] is dengue virus type 3. In words: Antiviral activity Dengue virus 3. It counts as functional, organism-based.
Data set [16] concerns dengue virus type 4. As to the kind of experiment: Antiviral activity Dengue virus 4. Format: functional, organism-based.
Data set [17] concerns Human immunodeficiency virus 1. In words: Antiviral activity against HIV-1 harboring RT K103N mutant infected in human MT4 cells assessed as protection against virus-induced cytopathic effect measured for 5 days by MTT assay. Format: functional, organism-based. The settings on record: Human immunodeficiency virus 1, MT4, 120 h.
The test system of data set [18] is MT4. As to the kind of experiment: Cytotoxicity against human MT4 cells. It counts as functional.
The subject of data set [19] is C8166. In words: Cytotoxicity against human C8166 cells assessed as reduction in cell viability incubated for 72 hrs by MTT assay. It counts as functional.
The nature of data set [20]: Selectivity index, ratio of CC50 for human C8166 cells to EC50 for antiviral activity against HIV-1 IIIB infected in human C8166 cells. Format: toxicity, cell-based. The conditions noted are these: read-out: Ratio CC50/EC50.
Data set [21] concerns Human immunodeficiency virus 1. In words: Antiviral activity against HIV-1 IIIB infected in human C8166 cells assessed as reduction in virus-induced cytopathic effect incubated for 3 days by MTT assay. Format: functional, organism-based. The settings on record: Human immunodeficiency virus 1, IIIB, C8166, 72 h.
The subject of data set [22] is Human immunodeficiency virus 1. As to the kind of experiment: Antiviral activity against wild type HIV-1 IIIB infected in human MT4 cells. Format: functional, organism-based. The settings on record: Human immunodeficiency virus 1, IIIB.
Data set [23] can be described thus: Inhibition of Hepatitis C virus NS5B RNA dependent RNA polymerase. Further details: species or system Hepacivirus hominis.
Data set [24] can be described thus: Cytotoxicity against African green monkey Vero cells assessed as reduction in cell viability measured after 96 hrs by MTT assay. Format: toxicity, cell-based. The settings on record: chlorocebus sabaeus.
The test system of data set [25] is Zika virus. As to the kind of experiment: Antiviral activity against Zika virus infected in Vero cells assessed as reduction in viral DNA replication. Format: functional, organism-based.
The nature of data set [26]: Cytotoxicity against African green monkey Vero cells assessed as reduction in cell growth measured after 96 hrs by MTT assay. Format: toxicity, cell-based. The conditions noted are these: chlorocebus sabaeus.
The nature of data set [27]: Selectivity index, ratio of CC50 for human MT4 cells to EC50 for antiviral activity against HIV-1 infected in human MT4 cells. It counts as toxicity, cell-based. The settings on record: read-out: Ratio CC50/EC50.
Data set [28] concerns MT4. As to the kind of experiment: Cytotoxicity against human MT4 cells assessed as reduction in cell viability by MTT assay. It counts as functional.
Data set [29] has as its system Human immunodeficiency virus 1. In words: Antiviral activity against HIV-1 infected in human MT4 cells assessed as reduction in virus induced cytopathic effect measured for 4 days by MTT assay. Format: functional, organism-based. The conditions noted are these: Human immunodeficiency virus 1, MT4, 96 h.
The nature of data set [30]: Toxicity in African green monkey Vero cells assessed as reduction in cell viability incubated for 72 hrs by MTT assay. It counts as cell-based. The settings on record: chlorocebus sabaeus, read-out: TD50.
Data set [31] concerns Staphylococcus aureus. As to the kind of experiment: Antibacterial activity against Staphylococcus aureus assessed as reduction in microbial growth measured for 18 hrs by CLSI based broth microdilution method. It counts as functional.
Data set [32] can be described thus: Toxicity in human C8166 cells assessed as reduction in cell viability incubated for 72 hrs by MTT assay. Format: cell-based. The settings on record: read-out: TD50.
The subject of data set [33] is Human immunodeficiency virus 1. In words: Antiviral wild type activity against HIV-1 WAN infected in human PBMC cells assessed as reduction in virus-induced cytopathic effect incubated for 3 days by MTT assay. It counts as functional, organism-based. The conditions noted are these: Human immunodeficiency virus 1, WAN, 72 h.
Data set [34] relates to Human immunodeficiency virus 1. As to the kind of experiment: Antiviral wild type activity against HIV-1 IIIB infected in human C8166 cells assessed as reduction in virus-induced cytopathic effect incubated for 3 days by MTT assay. The conditions noted are these: Human immunodeficiency virus 1, IIIB, C8166, 72 h. Format: functional, organism-based.
Data set [35] relates to Human immunodeficiency virus 1. In words: Antiviral wild type activity against HIV-1 TC-1 infected in human PBMC cells assessed as reduction in virus-induced cytopathic effect incubated for 3 days by MTT assay. The settings on record: Human immunodeficiency virus 1, TC-1, PBMC, 72 h. Format: functional, organism-based.
Data set [36] concerns Human immunodeficiency virus 1. In words: Antiviral wild type activity against HIV-1 Ba-L infected in human TZM-bl cells assessed as reduction in virus-induced cytopathic effect incubated for 3 days by MTT assay. Format: functional, organism-based. The conditions noted are these: Human immunodeficiency virus 1, Ba-L, 72 h.
Data set [37] deals with Human immunodeficiency virus 1. As to the kind of experiment: Antiviral […] activity against HIV-1 A17 harboring reverse transcriptase K103N/Y181C double mutant infected in human C8166 cells assessed as reduction in virus-induced cytopathic effect incubated for 3 days by MTT assay. Format: functional, organism-based. The conditions noted are these: Human immunodeficiency virus 1, A17, C8166, 72 h.

Data set [38] can be described thus: Cytotoxicity against African green monkey Vero cells assessed as reduction in cell viability incubated for 72 hrs by MTT assay. Format: toxicity, cell-based. The conditions noted are these: chlorocebus sabaeus.
Data set [39] relates to Human immunodeficiency virus 1. As to the kind of experiment: Antiviral activity against HIV-1 IIIB infected in […] cells assessed as reduction in viral replication measured for 72 hrs. The settings on record: Human immunodeficiency virus 1, IIIB. Format: functional, organism-based.
Data set [40] can be described thus: Selectivity index, ratio of CC50 for Vero cells to EC50 for antiviral activity against HIV-1 infected in Vero cells. It counts as toxicity, cell-based. The settings on record: monkey, read-out: Ratio CC50/EC50.

`Cc1ccccc1Cc1nc(SC2CCCCC2)[nH]c(=O)c1C`: the EC50 in data set [1] was found to be 0.6 µM. For the same compound, the CC50 in [2] was more than 304 µM. In [3], the concentration for half-maximal inhibition (IC50) turned out to be 1.3 µM. Also, in data set [4], the selectivity ratio was more than 506.

Turning to `O=c1cc(Cc2ccccc2)nc(NCCCCO)[nH]1`, the half-maximal effective concentration (EC50) in data set [5] is 525 µM; in data set [6] it was 840 µM.

Take `CCc1c(Cc2ccc3c(c2)OCO3)nc(SCCCN2C(=O)c3ccccc3C2=O)[nH]c1=O`: the MIC came to 25 µg/mL (≈ 52.4 µM) in data set [7]; 75 µg/mL in data set [8]; 100 µg/mL (≈ 209 µM) in data set [9]; 75 µg/mL (≈ 157 µM) in data set [10]; 25 µg/mL (≈ 52.4 µM) in data set [11].

With `CCc1c(CC2CCCCC2)nc(SCc2n[nH]c(-c3ccc(F)cc3)c2Cl)[nH]c1=O`, the EC50 was determined as 17.5 µM in data set [12], 13.2 µM in data set [14], 6.8 µM in data set [15] and 11.4 µM in data set [16]. Also, the CC50 in data set [13] is more than 200 µM.

Regarding `CCc1c(Cc2ccc3c(c2)OCO3)nc(SCCN(C)C)[nH]c1=O`, the minimal inhibitory concentration (MIC) was determined as 50 µg/mL (≈ 138 µM) in [7]; 100 µg/mL in [8]; 50 µg/mL (≈ 138 µM) in data set [9]; 75 µg/mL (≈ 207 µM) in [10]; 25 µg/mL (≈ 69.2 µM) in data set [11].

As for `O=C1c2ccccc2C(=O)N1CCSc1nc(Cc2c(F)cccc2F)cc(=O)[nH]1`, the half-maximal effective concentration (EC50) in [17] came to 100 µM. The same compound returned a CC50 in data set [18] of more than 100 µM.

With `CCc1c(CC23CC4CC(CC(C4)C2)C3)nc(SCC(=O)c2ccccc2)[nH]c1=O`, in data set [19], the CC50 is 20.4 µM. Also, the selectivity ratio in data set [20] was determined as 107. In addition, the EC50 in data set [21] and in data set [22] was 0.19 µM throughout.

In turn, `CCc1c(CC2CCCCC2)nc(SCC(=O)Nc2cc(F)cc(F)c2)[nH]c1=O` displayed a half-maximal inhibitory concentration (IC50) in data set [23] of 0.089 µM. For the same compound, the CC50 at 96 h is more than 10 µM in [24] and 60.2 µM in data set [26]. Also, the 50% effective concentration (EC50) in [25] is more than 50 µM.

On to `Cc1cc(=O)[nH]c(SCCN2C(=O)c3ccccc3C2=O)n1`, for which the 50% effective concentration (EC50) in data set [17] worked out at 1.9 µM. In [18], this compound returned a CC50 of 117 µM.

In the case of `CCC(C)Oc1nc(N)cc(S(=O)(=O)c2cccc(C)c2)n1` (stereo not drawn), the selectivity ratio in data set [27] was more than 43. Further, in data set [28], the CC50 was more than 200 µM. Besides, the IC50 in [3] stood at 26.5 µM. The 50% effective concentration (EC50) in [29] came to 4.7 µM.

Turning to `CCc1c(CC23CC4CC(CC(C4)C2)C3)nc(SCC(=O)c2ccc(OC)cc2)[nH]c1=O`, the CC50 in data set [19] was determined as 17.2 µM. The selectivity ratio in [20] turned out to be 172. The EC50 in data set [21] and in data set [22] was 0.1 µM each time.

For `COc1ccc(C(Cl)(Cl)c2cc(Cl)nc(OC)n2)cc1`, the CC50 at 72 h was determined as 12.5 µg/mL (≈ 37.5 µM) in data set [30] and 25 µg/mL (≈ 74.9 µM) in data set [32]. The MIC in data set [31] stood at 6.2 µg/mL.

With `CCc1c(CC2CCCCC2)nc(SCc2cc(-c3ccc(SC)cc3)[nH]n2)[nH]c1=O`, the EC50 was determined as 0.165 µM in data set [33]; 0.018 µM in data set [34]; 0.055 µM in data set [35]; 0.193 µM in data set [36]; 4.87 µM in data set [37]; 0.011 µM in data set [21].

On to `Cc1c(Sc2ccccc2)n(COCCO)c(=O)[nH]c1=O` [HEPT], for which the CC50 at 72 h in data set [38] was determined as 740 µM. The half-maximal effective concentration (EC50) in data set [39] is 7 µM. In data set [40], the selectivity ratio turned out to be 106.
